PubChem BioAssay (NCI)
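Step 1: Grow cells in 96-well plates. Step 2: Expose to compound for 48 hours at 5 concentrations. Step 3: Interpolate endpoints linearly; if unreached, use highest concentration. At the GI50, growth is halved. At the TGI there is no net growth.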

Tests used:
Experiment in all cases: NCI tumour cell line growth inhibition, 48 h
[1] = system: 786-0 renal
[2] = system: A498 renal
[3] = system: A549 NSCLC
[4] = system: ACHN renal
[5] = system: BT-549 breast
[6] = system: CAKI-1 renal
[7] = system: CCRF-CEM leukemia
[8] = system: COLO 205 colon
[9] = system: DU-145 prostate
[10] = system: EKVX NSCLC
[11] = system: HCC-2998 colon
[12] = system: HCT-116 colon
[13] = system: HCT-15 colon
[14] = system: HL-60(TB) leukemia
[15] = system: HOP-62 NSCLC
[16] = system: HOP-92 NSCLC
[17] = system: HT29 colon
[18] = system: IGROV1 ovarian
[19] = system: K-562 leukemia
[20] = system: KM12 colon
[21] = system: LOX IMVI melanoma
[22] = system: M14 melanoma
[23] = system: MALME-3M melanoma
[24] = system: MCF7 breast
[25] = system: MDA-MB-231 breast
[26] = system: MDA-MB-435
[27] = system: MOLT-4 leukemia
[28] = system: NCI-H226 lung
[29] = system: NCI-H23 lung
[30] = system: NCI-H460 lung
[31] = system: NCI-H522 lung
[32] = system: NCI/ADR-RES ovarian
[33] = system: OVCAR-3 ovarian
[34] = system: OVCAR-4 ovarian
[35] = system: OVCAR-5 ovarian
[36] = system: OVCAR-8 ovarian
[37] = system: PC-3 prostate
[38] = system: RPMI-8226 leukemia
[39] = system: RXF 393 renal
[40] = system: SF-268 CNS
[41] = system: SF-295 CNS
[42] = system: SF-539 CNS
[43] = system: SK-MEL-2 melanoma
[44] = system: SK-MEL-28 melanoma
[45] = system: SK-MEL-5 melanoma
[46] = system: SK-OV-3 ovarian
[47] = system: SN12C renal
[48] = system: SNB-19 CNS
[49] = system: SNB-75 CNS
[50] = system: SW-620 colon
[51] = system: T-47D breast
[52] = system: TK-10 renal
[53] = system: U251 CNS
[54] = system: UACC-257 melanoma
[55] = system: UACC-62 melanoma
[56] = system: UO-31 renal
[57] = system: HS 578T breast
[58] = system: SR leukemia

In the case of N#Cc1c(-c2ccc(Cl)cc2)n(O)c2ccccc12, the GI50 [1] is reported as 2.24 µM, the TGI [1] is reported as 7.04 µM and the GI50 [2] is reported as 1.38 µM. The TGI [2] was 4.09 µM, the GI50 [3] was 2.6 µM and the TGI [3] was 11.9 µM. It also gave a GI50 [4] of 3.68 µM, a TGI [4] of 91.2 µM and a GI50 [5] of 1.16 µM. It also gave a TGI [5] of 7.97 µM, a GI50 [6] of 1.95 µM and a TGI [6] of 5.2 µM. It also gave a GI50 [7] of 3.37 µM, a TGI [7] of 23.2 µM and a GI50 [8] of 13.4 µM. For the same molecule, the TGI [8] was 30.7 µM, the GI50 [9] was 3.75 µM and the TGI [9] was over 100 µM. It also gave a GI50 [10] of 3.11 µM, a TGI [10] of 15.7 µM and a GI50 [11] of 3 µM. The TGI [11] was 8.01 µM, the GI50 [12] was 2.29 µM and the TGI [12] was 8.69 µM. The GI50 [13] was 1.8 µM, the TGI [13] was 18.9 µM and the GI50 [14] was 1.76 µM. It also gave a TGI [14] of 5.69 µM, a GI50 [15] of 2.23 µM and a TGI [15] of 7.9 µM. For the same molecule, the GI50 [16] was 1.02 µM, the TGI [16] was 3.5 µM and the GI50 [17] was 4.84 µM. The TGI [17] was 20.9 µM, the GI50 [18] was 3.15 µM and the TGI [18] was 8.52 µM. It also gave a GI50 [19] of 0.949 µM, a TGI [19] of over 100 µM and a GI50 [20] of 2.17 µM. It also gave a TGI [20] of 11.7 µM, a GI50 [21] of 2.24 µM and a TGI [21] of 13.4 µM. It also gave a GI50 [22] of 0.803 µM, a TGI [22] of 7.36 µM and a GI50 [23] of 1.88 µM. For the same molecule, the TGI [23] was 9.02 µM, the GI50 [24] was 2.67 µM and the TGI [24] was over 100 µM. For the same molecule, the GI50 [25] was 1.51 µM, the TGI [25] was 4.38 µM and the GI50 [26] was 0.29 µM. It also gave a TGI [26] of 1.26 µM, a GI50 [27] of 3.61 µM and a TGI [27] of 15.5 µM. The GI50 [28] was 2.83 µM, the TGI [28] was 12 µM and the GI50 [29] was 2.02 µM. The TGI [29] was 6.9 µM, the GI50 [30] was 2.82 µM and the TGI [30] was over 100 µM. The GI50 [31] was 2.11 µM, the TGI [31] was 6.32 µM and the GI50 [32] was 1.43 µM. The TGI [32] was 4.2 µM, the GI50 [33] was 2.6 µM and the TGI [33] was 6.39 µM. It also gave a GI50 [34] of 3.01 µM, a TGI [34] of over 100 µM and a GI50 [35] of 4.08 µM. It also gave a TGI [35] of over 100 µM, a GI50 [36] of 2.65 µM and a TGI [36] of 8.78 µM. The GI50 [37] was 2.85 µM, the TGI [37] was 20.2 µM and the GI50 [38] was 1.6 µM. The TGI [38] was 6.48 µM, the GI50 [39] was 1.8 µM and the TGI [39] was 5.84 µM. It also gave a GI50 [40] of 2.6 µM, a TGI [40] of 25.5 µM and a GI50 [41] of 2.33 µM. It also gave a TGI [41] of 6.09 µM, a GI50 [42] of 2.58 µM and a TGI [42] of 9.83 µM. The GI50 [43] was 1.46 µM, the TGI [43] was 5.46 µM and the GI50 [44] was 1.42 µM. It also gave a TGI [44] of 26.4 µM, a GI50 [45] of 0.557 µM and a TGI [45] of 2.06 µM. The GI50 [46] was 2.17 µM, the TGI [46] was 5.16 µM and the GI50 [47] was 3.07 µM. The TGI [47] was over 100 µM, the GI50 [48] was 2.71 µM and the TGI [48] was 80.4 µM. It also gave a GI50 [49] of 1.21 µM, a TGI [49] of 4.44 µM and a GI50 [50] of 0.996 µM. For the same molecule, the TGI [50] was 13.2 µM, the GI50 [51] was 2.88 µM and the TGI [51] was 11.1 µM. The GI50 [52] was 3.64 µM, the TGI [52] was 9.16 µM and the GI50 [53] was 1.9 µM. For the same molecule, the TGI [53] was 7.06 µM, the GI50 [54] was 2.27 µM and the TGI [54] was 6.31 µM. The GI50 [55] was 2.79 µM, the TGI [55] was 12.3 µM and the GI50 [56] was 2.6 µM. It also gave a TGI [56] of 9.24 µM.
In the case of Cn1nc(/C=C\C(=O)N2CC(CCl)c3c2cc(N)c2ccccc32)cc1/C=C/C(=O)N1CC(CCl)c2c1cc(N)c1ccccc21 (configuration not stated), the TGI [4] is reported as over 100 µM, the TGI [5] is reported as under 0.01 µM and the TGI [6] is reported as under 0.01 µM. It also gave a TGI [7] of under 0.01 µM, a TGI [10] of 0.0965 µM and a TGI [15] of 0.0411 µM. It also gave a TGI [19] of over 100 µM, a TGI [20] of over 100 µM and a TGI [22] of under 0.01 µM. The TGI [24] was over 100 µM, the TGI [25] was under 0.01 µM and the TGI [27] was over 100 µM. For the same molecule, the TGI [28] was under 0.01 µM, the TGI [30] was over 100 µM and the TGI [32] was 0.295 µM. For the same molecule, the TGI [34] was over 100 µM, the TGI [35] was under 0.01 µM and the TGI [37] was 0.0596 µM. It also gave a TGI [46] of over 100 µM, a TGI [48] of 0.591 µM and a TGI [50] of over 100 µM. The TGI [51] was over 100 µM and the TGI [55] was under 0.01 µM.
CC(C)(C)[Si](C)(C)OCC1OC(n2cnc3c(NC(=O)c4ccccc4)ncnc32)CC1O (configuration not stated) was tested, and the TGI [1] was 38.6 µM, the TGI [2] was 60.5 µM and the TGI [3] was over 100 µM. It also gave a TGI [4] of 95.4 µM, a TGI [6] of over 100 µM and a TGI [7] of 53.4 µM. For the same molecule, the TGI [8] was 33.1 µM, the TGI [9] was over 100 µM and the TGI [10] was over 100 µM. The TGI [11] was 88.6 µM, the TGI [12] was 70.5 µM and the TGI [13] was over 100 µM. The TGI [14] was 49.2 µM, the TGI [15] was 35.5 µM and the TGI [16] was 55.2 µM. The TGI [57] was 45.8 µM, the TGI [17] was over 100 µM and the TGI [18] was 91.3 µM. The TGI [19] was 48.2 µM, the TGI [20] was 87.4 µM and the TGI [21] was 33.9 µM. It also gave a TGI [22] of 38.5 µM, a TGI [23] of 60.7 µM and a TGI [24] of over 100 µM. It also gave a TGI [25] of 55.7 µM, a TGI [26] of 44.6 µM and a TGI [27] of 49.9 µM. For the same molecule, the TGI [28] was 66.5 µM, the TGI [29] was over 100 µM and the TGI [30] was over 100 µM. It also gave a TGI [31] of 37.7 µM, a TGI [32] of 98.7 µM and a TGI [33] of 81.1 µM. It also gave a TGI [34] of 84.6 µM, a TGI [35] of over 100 µM and a TGI [36] of over 100 µM. For the same molecule, the TGI [37] was 95.5 µM, the TGI [38] was 47 µM and the TGI [39] was 40.4 µM. For the same molecule, the TGI [40] was over 100 µM, the TGI [41] was 44.2 µM and the TGI [42] was 41 µM. For the same molecule, the TGI [43] was 57.9 µM, the TGI [44] was 87.4 µM and the TGI [45] was 33.3 µM. For the same molecule, the TGI [46] was 89.1 µM, the TGI [47] was over 100 µM and the TGI [48] was 74.3 µM. For the same molecule, the TGI [49] was 60.3 µM, the TGI [58] was 49.6 µM and the TGI [50] was over 100 µM. The TGI [51] was 99.5 µM, the TGI [52] was over 100 µM and the TGI [53] was 51.6 µM. For the same molecule, the TGI [54] was over 100 µM, the TGI [55] was 40.4 µM and the TGI [56] was 2.96 µM.
